Results taken from ChEMBL document CHEMBL5346933, “Design and synthesis of novel arylurea derivatives of aryloxy(1-phenylpropyl) alicyclic diamines with antimicrobial activity against multidrug-resistant Gram-positive bacteria” (Eur J Med Chem, 2023).
≈ marks a conversion by molar mass, not a printed value. Calls of active or inactive are those of the source. The calls are words filed in the database; no cut-off is given here.

Experiments:
Assay type in all cases: functional
[1] = system: Staphylococcus aureus; experiment: Antibacterial activity against methicillin-susceptible Staphylococcus aureus ATCC 25923 assessed as inhibition of bacterial growth incubated for 18 hrs by broth microdilution method
[2] = system: Staphylococcus epidermidis; experiment: Antibacterial activity against methicillin-susceptible Staphylococcus epidermidis ATCC 12228 assessed as inhibition of bacterial growth incubated for 18 hrs by broth microdilution method
[3] = system: Streptococcus pneumoniae; experiment: Antibacterial activity against Streptococcus pneumoniae ATCC 49619 assessed as inhibition of bacterial growth incubated for 18 hrs by broth microdilution method
[4] = system: Staphylococcus aureus; experiment: Antibacterial activity against methicillin-resistant Staphylococcus aureus clinical strain 19449 assessed as inhibition of bacterial growth incubated for 18 hrs by broth microdilution method
[5] = system: Staphylococcus aureus; experiment: Antibacterial activity against vancomycin-intermediate Staphylococcus aureus ATCC 700699 assessed as inhibition of bacterial growth incubated for 18 hrs by broth microdilution method
[6] = system: Staphylococcus epidermidis; experiment: Antibacterial activity against linezolid-resistant Staphylococcus epidermidis NIL 4399/19 assessed as inhibition of bacterial growth incubated for 18 hrs by broth microdilution method
[7] = system: Staphylococcus aureus; experiment: Antibacterial activity against biofilm producer Staphylococcus aureus RN450 assessed as inhibition of bacterial growth incubated for 18 hrs by broth microdilution method
[8] = system: Staphylococcus epidermidis; experiment: Antibacterial activity against biofilm producer Staphylococcus epidermidis ATCC 35984 assessed as inhibition of bacterial growth incubated for 18 hrs by broth microdilution method
[9] = system: Escherichia coli; experiment: Antibacterial activity against Escherichia coli ATCC 25922 assessed as inhibition of bacterial growth incubated for 18 hrs by broth microdilution method
[10] = system: Klebsiella pneumoniae; experiment: Antibacterial activity against Klebsiella pneumoniae ATCC 700603 assessed as inhibition of bacterial growth incubated for 18 hrs by broth microdilution method
[11] = system: Pseudomonas aeruginosa; experiment: Antibacterial activity against Pseudomonas aeruginosa ATCC 27853 assessed as inhibition of bacterial growth incubated for 18 hrs by broth microdilution method
[12] = system: Enterococcus faecalis; experiment: Antibacterial activity against Enterococcus faecalis ATCC 29212 assessed as inhibition of bacterial growth incubated for 18 hrs by broth microdilution method
[13] = system: Enterococcus faecium; experiment: Antibacterial activity against vancomycin-resistant Enterococcus faecium assessed as inhibition of bacterial growth incubated for 18 hrs by broth microdilution method

SMILES | MIC [1] | MIC [2] | MIC [3] | MIC [4] | MIC [5] | MIC [6] | MIC [7] | MIC [8] | Activity [9] | Activity [10] | Activity [11] | MIC [12] | MIC [13]
COc1ccccc1OC(CCN1CCC(NC(=O)Nc2cccc(Cl)c2)CC1)c1ccccc1 (centres undefined) | > 12.5 mg/L | > 12.5 mg/L | > 12.5 mg/L | > 12.5 mg/L | > 12.5 mg/L | > 12.5 mg/L | > 12.5 mg/L | 12.5 mg/L (≈ 25.3 µM) | inactive | inactive | inactive | – | –
O=C(Nc1cccc(F)c1)NC1CCN(CCC(Oc2ccc(C(F)(F)F)cc2)c2ccccc2)CC1 (centres undefined) | 6.25 mg/L (≈ 12.1 µM) | 3.12 mg/L (≈ 6.06 µM) | 6.25 mg/L (≈ 12.1 µM) | 3.12 mg/L (≈ 6.06 µM) | 6.25 mg/L (≈ 12.1 µM) | 3.12 mg/L (≈ 6.06 µM) | 1.56 mg/L (≈ 3.03 µM) | 3.12 mg/L (≈ 6.06 µM) | inactive | inactive | inactive | 3.12 mg/L (≈ 6.06 µM) | 0.78 mg/L (≈ 1.51 µM)
O=C(Nc1cccc(Cl)c1)NC1CCN(CCC(Oc2ccc(C(F)(F)F)cc2)c2ccccc2)CC1 (centres undefined) | 0.78 mg/L (≈ 1.47 µM) | 0.78 mg/L (≈ 1.47 µM) | > 12.5 mg/L | 6.25 mg/L (≈ 11.7 µM) | 6.25 mg/L (≈ 11.7 µM) | 3.12 mg/L (≈ 5.87 µM) | 3.12 mg/L (≈ 5.87 µM) | 3.12 mg/L (≈ 5.87 µM) | inactive | inactive | inactive | 6.25 mg/L (≈ 11.7 µM) | 1.56 mg/L (≈ 2.93 µM)
O=C(Nc1cccc(Cl)c1)N1CCN(CCC(Oc2ccc(C(F)(F)F)cc2)c2ccccc2)CC1 (racemic) | > 12.5 mg/L | > 12.5 mg/L | > 12.5 mg/L | > 12.5 mg/L | > 12.5 mg/L | > 12.5 mg/L | > 12.5 mg/L | > 12.5 mg/L | inactive | inactive | inactive | – | –
O=C(Nc1cccc(Cl)c1)NC1CCN(CCC(Oc2cccc(F)c2)c2ccccc2)CC1 (racemic) | 6.25 mg/L (≈ 13 µM) | 6.25 mg/L (≈ 13 µM) | 12.5 mg/L (≈ 25.9 µM) | 6.25 mg/L (≈ 13 µM) | 6.25 mg/L (≈ 13 µM) | 6.25 mg/L (≈ 13 µM) | 3.12 mg/L (≈ 6.48 µM) | 3.12 mg/L (≈ 6.48 µM) | inactive | inactive | inactive | 6.25 mg/L (≈ 13 µM) | 1.56 mg/L (≈ 3.24 µM)
O=C(Nc1ccc(F)cc1)NC1CCN(CCC(Oc2ccc(C(F)(F)F)cc2)c2ccccc2)CC1 (racemic) | 6.25 mg/L (≈ 12.1 µM) | 6.25 mg/L (≈ 12.1 µM) | > 12.5 mg/L | 3.12 mg/L (≈ 6.06 µM) | 6.25 mg/L (≈ 12.1 µM) | 3.12 mg/L (≈ 6.06 µM) | 3.12 mg/L (≈ 6.06 µM) | 3.12 mg/L (≈ 6.06 µM) | inactive | inactive | inactive | 6.25 mg/L (≈ 12.1 µM) | 3.12 mg/L (≈ 6.06 µM)
O=C(Nc1ccccc1)NC1CCN(CCC(Oc2ccc(C(F)(F)F)cc2)c2ccccc2)CC1 (racemic) | > 12.5 mg/L | > 12.5 mg/L | > 12.5 mg/L | > 12.5 mg/L | > 12.5 mg/L | > 12.5 mg/L | > 12.5 mg/L | 12.5 mg/L (≈ 25.1 µM) | inactive | inactive | inactive | – | –
O=C(Nc1cccc(Cl)c1)NC1CCN(CCC(Oc2ccc(F)cc2)c2ccccc2)CC1 (racemic) | 6.25 mg/L (≈ 13 µM) | 6.25 mg/L (≈ 13 µM) | 12.5 mg/L (≈ 25.9 µM) | 6.25 mg/L (≈ 13 µM) | 6.25 mg/L (≈ 13 µM) | 6.25 mg/L (≈ 13 µM) | 3.12 mg/L (≈ 6.48 µM) | 3.12 mg/L (≈ 6.48 µM) | inactive | inactive | inactive | 6.25 mg/L (≈ 13 µM) | 1.56 mg/L (≈ 3.24 µM)
O=C(Nc1cccc(Cl)c1)NC1CCN(CCC(Oc2ccccc2Cl)c2ccccc2)CC1 (racemic) | 6.25 mg/L (≈ 12.5 µM) | 6.25 mg/L (≈ 12.5 µM) | 12.5 mg/L (≈ 25.1 µM) | 6.25 mg/L (≈ 12.5 µM) | 6.25 mg/L (≈ 12.5 µM) | 3.12 mg/L (≈ 6.27 µM) | 1.56 mg/L (≈ 3.13 µM) | 3.12 mg/L (≈ 6.27 µM) | inactive | inactive | inactive | 6.25 mg/L (≈ 12.5 µM) | 6.25 mg/L (≈ 12.5 µM)
O=C(Nc1cccc(Cl)c1)NC1CCN(CCC(Oc2ccccc2C(F)(F)F)c2ccccc2)CC1 (racemic) | 3.12 mg/L (≈ 5.87 µM) | 12.5 mg/L (≈ 23.5 µM) | 12.5 mg/L (≈ 23.5 µM) | 3.12 mg/L (≈ 5.87 µM) | 3.12 mg/L (≈ 5.87 µM) | 3.12 mg/L (≈ 5.87 µM) | 3.12 mg/L (≈ 5.87 µM) | > 12.5 mg/L | inactive | inactive | inactive | – | –
O=C(Nc1cccc(Cl)c1)NC1CCN(CCC(Oc2ccccc2F)c2ccccc2)CC1 (racemic) | 12.5 mg/L (≈ 25.9 µM) | 12.5 mg/L (≈ 25.9 µM) | 12.5 mg/L (≈ 25.9 µM) | 12.5 mg/L (≈ 25.9 µM) | 12.5 mg/L (≈ 25.9 µM) | 6.25 mg/L (≈ 13 µM) | 6.25 mg/L (≈ 13 µM) | 12.5 mg/L (≈ 25.9 µM) | inactive | inactive | inactive | – | –
COc1ccc(OC(CCN2CCC(NC(=O)Nc3cccc(Cl)c3)CC2)c2ccccc2)cc1 (racemic) | 12.5 mg/L (≈ 25.3 µM) | 12.5 mg/L (≈ 25.3 µM) | > 12.5 mg/L | 12.5 mg/L (≈ 25.3 µM) | 6.25 mg/L (≈ 12.7 µM) | 6.25 mg/L (≈ 12.7 µM) | 6.25 mg/L (≈ 12.7 µM) | 6.25 mg/L (≈ 12.7 µM) | inactive | inactive | inactive | – | –
O=C(Nc1ccc(Cl)cc1)NC1CCN(CCC(Oc2ccc(C(F)(F)F)cc2)c2ccccc2)CC1 (racemic) | > 12.5 mg/L | > 12.5 mg/L | 6.25 mg/L (≈ 11.7 µM) | 6.25 mg/L (≈ 11.7 µM) | > 12.5 mg/L | > 12.5 mg/L | 1.56 mg/L (≈ 2.93 µM) | 3.12 mg/L (≈ 5.87 µM) | inactive | inactive | inactive | – | –
COc1cccc(OC(CCN2CCC(NC(=O)Nc3cccc(Cl)c3)CC2)c2ccccc2)c1 (racemic) | 12.5 mg/L (≈ 25.3 µM) | 6.25 mg/L (≈ 12.7 µM) | 12.5 mg/L (≈ 25.3 µM) | 12.5 mg/L (≈ 25.3 µM) | 12.5 mg/L (≈ 25.3 µM) | 6.25 mg/L (≈ 12.7 µM) | 3.12 mg/L (≈ 6.33 µM) | 6.25 mg/L (≈ 12.7 µM) | inactive | inactive | inactive | – | –
O=C(Nc1cccc(Cl)c1)NC1CCN(CCC(Oc2ccccc2)c2ccccc2)CC1 (racemic) | 6.25 mg/L (≈ 13.5 µM) | 6.25 mg/L (≈ 13.5 µM) | 12.5 mg/L (≈ 26.9 µM) | 12.5 mg/L (≈ 26.9 µM) | 12.5 mg/L (≈ 26.9 µM) | 6.25 mg/L (≈ 13.5 µM) | 1.56 mg/L (≈ 3.36 µM) | 3.12 mg/L (≈ 6.73 µM) | inactive | inactive | inactive | – | –
O=C(O)c1cn(C2CC2)c2cc(N3CCNCC3)c(F)cc2c1=O [CIPROFLOXACIN] | 0.78 mg/L (≈ 2.35 µM) | 0.78 mg/L (≈ 2.35 µM) | – | – | – | > 12.5 mg/L | 0.78 mg/L (≈ 2.35 µM) | 0.78 mg/L (≈ 2.35 µM) | – | – | – | 0.78 mg/L (≈ 2.35 µM) | 0.78 mg/L (≈ 2.35 µM)
